Where “and” joins values, the source holds several entries; their conditions need not be identical. Identical values can stand only once.
Tests used:
Type in all cases: cell-based
[1] = system: HepG2 (human hepatocellular carcinoma); assay: Cytotoxic activity, alamar blue assay, HepG2; conditions: HepG2, IC50 72h
Text: (§1) HCT116 (human colon carcinoma), HepG2 (human hepatocellular carcinoma), HSC-3 (human oral squamous cell carcinoma), SCC-4 (human oral squamous cell carcinoma), SCC-9 (human oral squamous cell carcinoma), HL-60 (human promyelocytic leukemia), K-562 (human chronic myelogenous leukemia), B16-F10 (murine melanoma), MRC-5 (human lung fibroblast), WT SV40 MEF (wild-type immortalized mouse embryonic fibroblast) and BAD KO SV40 MEF (BAD gene knockout immortalized mouse embryonic fibroblast) cell lines were obtained from the American Type Culture Collection (ATCC, Manassas, VA, USA) and cultured in RPMI-1640 medium (Gibco-BRL, Gaithersburg, MD, USA) with 10% fetal bovine serum (Life, Carlsbad, CA, USA), 2 mM L-glutamine (Vetec Química Fina, Duque de Caxias, RJ, Brazil) and 50 μg/mL gentamycin (Life, Carlsbad, CA, USA). Adherent cells were collected by treatment with 0.25% trypsin EDTA solution (Gibco-BRL, Gaithersburg, MD, USA). All cell lines were cultured in flasks at 37°C in 5% CO2 and sub-cultured every 3-4 days to maintain exponential growth.
(§2) Cell viability was quantified using the alamar blue assay, according to Ahmed et al.. Cells were inserted in 96-well plates for all experiments (7 x 10^4 cells/mL for adherent cells or 3 x 10^5 cells/mL for suspended cells in 100 μL of medium). […] Negative controls received the vehicle that was used for diluting the compounds tested.

[2] = system: SCC-9 (human oral squamous cell carcinoma); assay: Cytotoxic activity, alamar blue assay, SCC-9; conditions: SCC9, IC50 72h
Text: as §1, §2

[3] = system: K-562 (human chronic myelogenous leukemia); assay: Cytotoxic activity, alamar blue assay, K-562; conditions: K562, IC50 72h
Text: as §1, §2

[4] = system: BAD KO SV40 MEF (BAD gene knockout immortalized mouse embryonic fibroblast); assay: Cytotoxic activity, alamar blue assay, BAD KO SV40 MEF; conditions: BAD KO SV40 MEF, 72 h incubation, alamar blue; read-out: IC50
Text: as §1, §2

[5] = system: WT SV40 MEF (wild-type immortalized mouse embryonic fibroblast); assay: Cytotoxic activity, alamar blue assay, WT SV40 MEF; conditions: WT SV40 MEF, 72 h incubation, alamar blue; read-out: IC50
Text: as §1, §2

[6] = system: HCT116 cells; assay: Gene expression analysis by qPCR array (TaqMan Array Human Molecular Mechanisms of Cancer); conditions: HCT116, 12 h; DOX 1 μM, PL 10 μM, 1 2.5 μM, 2 5 μM; negative control RQ = 1.0
Method: HCT116 cells were plated in bottles tissue culture (7x10^4 cells/mL). After 12h of incubation with the complexes, total RNA was isolated from the cells using the RNeasy Plus mini kit (Qiagen, Hilden, Germany) according to the manufacturer’s instructions. The RNA was evaluated by fluorimetry (QuBit™, Life Technologies, Camarillo, CA, EUA). RNA reverse transcription was performed using Superscript VILO™ (Invitrogen Corporation, Waltham, MA, USA). A 96-well plate TaqMan® Array Human Molecular Mechanisms of Cancer (ID 4418806, Applied Biosystems™, Foster City, CA, EUA) was used for the gene expression study by qPCR. The reactions were conducted in the ABI ViiA7 (Applied Biosystems™, Foster City, CA, EUA). The cycle conditions comprised 2 min at 50 °C, 20 s at 95 °C, then 40 cycles of 3 s at 95 °C and 30 s at 60 °C. […] The GAPDH, 18S and HPRT1 genes were used for normalization. All experiments were performed in DNase/RNase free conditions.

[Ru(piplartine)(dppb)(bipy)](PF6)2 [Complex 2]
more potent than metal-free piplartine [1]: 3 fold
more potent than metal-free piplartine [2]: 2 fold
more potent than metal-free piplartine [3]: 3 fold
IC50 [4]: 4 µM
IC50 [5]: 6 µM
RQ ABL1 [6]: 0.863
RQ AKT1 [6]: 0.642
RQ AKT2 [6]: 0.592
RQ APC [6]: 0.576
RQ BAX [6]: 0.739
RQ BCAR1 [6]: 0.596
RQ BCL2 [6]: 0.8 and 0.748
RQ BCL2L1 [6]: 0.739
RQ BCL2L11 [6]: 0.904
RQ BID [6]: 0.671
RQ BRAF [6]: 0.781
RQ CASP8 [6]: 0.930
RQ CASP9 [6]: 0.828
RQ CCND1 [6]: 0.5 and 0.461
RQ CCND3 [6]: 0.723
RQ CCNE1 [6]: 0.893
RQ CDC42 [6]: 1.411
RQ CDH1 [6]: 1.1 and 1.098
RQ CDK2 [6]: 0.693
RQ CDK4 [6]: 0.898
RQ CDKN1A [6]: 0.996
RQ CDKN1B [6]: 0.783
RQ CDKN2A [6]: 1.2 and 1.153
RQ CRK [6]: 0.758
RQ CTNNB1 [6]: 0.877
RQ CYCS [6]: 1.0 and 1.043
RQ E2F1 [6]: 0.736
RQ EGFR [6]: 11,276.3 and 11,276.298
RQ ELK1 [6]: 0.628
RQ ERBB2 [6]: 1.006
RQ FADD [6]: 74.1 and 74.142
RQ FAS [6]: 1.037
RQ FGF2 [6]: 1.003
RQ FYN [6]: 1.169
RQ FZD1 [6]: 0.9 and 0.860
RQ GRB2 [6]: 0.693
RQ GSK3B [6]: 0.738
RQ GUSB [6]: 2.9
RQ HRAS [6]: 0.561
RQ IGF1R [6]: 0.7 and 0.677
RQ ITGA2B [6]: 0.1 and 0.135
RQ ITGAV [6]: 1,149.0 and 1,149.015
RQ ITGB1 [6]: 0.579
RQ ITGB3 [6]: 1.243
RQ JUN [6]: 2.3 and 2.306
RQ KDR [6]: 1.4 and 1.408
RQ KRAS [6]: 0.979
RQ MAP2K1 [6]: 2,107.2 and 2,107.239
RQ MAP3K5 [6]: 4.3 and 4.314
RQ MAPK1 [6]: 1.062
RQ MAPK3 [6]: 1.9 and 1.853
RQ MAPK8 [6]: 0.623
RQ MAPK14 [6]: 1.145
RQ MAX [6]: 0.9 and 0.912
RQ MDM2 [6]: 1.272
RQ MYC [6]: 0.796
RQ NFKB1 [6]: 0.699
RQ NFKB2 [6]: 1.536
RQ NFKBIA [6]: 0.9 and 0.894
RQ NRAS [6]: 0.923
RQ PIK3CA [6]: 0.565
RQ PIK3R1 [6]: 1.3 and 1.299
RQ PTEN [6]: 0.8 and 0.776
RQ PTK2 [6]: 2.4 and 2.357
RQ PTK2B [6]: 1.0 and 1.024
RQ RAC1 [6]: 2.7 and 2.676
RQ RAF1 [6]: 0.9 and 0.909
RQ RB1 [6]: 0.821
RQ RELA [6]: 0.845
RQ RHOA [6]: 1.017
RQ SMAD4 [6]: 2.1 and 2.050
RQ SOS1 [6]: 0.2 and 0.188
RQ SPP1 [6]: 10.1 and 10.094
RQ SRC [6]: 0.801
RQ TCF3 [6]: 0.608
RQ TGFB1 [6]: 0.868
RQ TGFBR1 [6]: 0.781
RQ TGFBR2 [6]: 1.1 and 1.085
RQ TP53 [6]: 1.5 and 1.466
RQ VEGFA [6]: 1.321
